Source: the supplement of paper PMC10307832

Assays:
Assay in all cases: relative viability (nuclei count vs DMSO), 5 days (fraction); higher = more cells survive
[1] = compound: CC1=C(C(=O)N2C=CSC2=N1)CCN3CCC(=C(C4=CC=CC=C4)C5=CC=C(C=C5)F)CC3 + O=C(CCCCCCC(=O)Nc1ccccc1)NO [Vorinostat] (partner 1 µM)
Summary of the method: (§1)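 A single step with final 0.05% Triton X-100, 1% formaldehyde and 1 ug/ml Hoechst fixed the cells and stained nuclei 5 days after treatment. Lung cancer cell lines in 1536-well plates had been treated by pin tool the day after seeding with one drug alone or a fixed anchor-drug dose plus five library-drug doses (not always all listed) in √10 steps, and nuclei were counted on 4× images. Relative viability is the ratio of nuclei in treated wells to nuclei in vehicle wells, taken as the median of duplicate plates.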

[2] = compound: CC1=C(C(=O)N2C=CSC2=N1)CCN3CCC(=C(C4=CC=CC=C4)C5=CC=C(C=C5)F)CC3 + C[C@]1(O)C[C@@H](c2nc(-c3ccc4ccc(-c5ccccc5)nc4c3)c3c(N)nccn32)C1 [Linsitinib] (partner 1 µM)
Summary of the method: as §1

[3] = compound: CC1=C(C(=O)N2C=CSC2=N1)CCN3CCC(=C(C4=CC=CC=C4)C5=CC=C(C=C5)F)CC3 + CC1(C)CCC(c2ccc(Cl)cc2)=C(CN2CCN(c3ccc(C(=O)NS(=O)(=O)c4ccc(N[C@H](CCN5CCOCC5)CSc5ccccc5)c(S(=O)(=O)C(F)(F)F)c4)cc3)CC2)C1 [Navitoclax] (partner 0.5 µM)
Summary of the method: as §1

[4] = compound: CC1=C(C(=O)N2C=CSC2=N1)CCN3CCC(=C(C4=CC=CC=C4)C5=CC=C(C=C5)F)CC3 + Nc1nc2[nH]cc(CCc3ccc(C(=O)N[C@@H](CCC(=O)O)C(=O)O)cc3)c2c(=O)[nH]1 [Pemetrexed] (partner 0.2 µM)
Summary of the method: as §1

Cell Line	relative viability ([1]; first compound 0.08 µM)	relative viability ([1]; first compound 0.253 µM)	relative viability ([1]; first compound 0.8 µM)	relative viability ([1]; first compound 2.53 µM)	relative viability ([1]; first compound 8 µM)	relative viability ([2]; first compound 0.08 µM)	relative viability ([2]; first compound 0.253 µM)	relative viability ([2]; first compound 0.8 µM)	relative viability ([2]; first compound 2.53 µM)	relative viability ([2]; first compound 8 µM)	relative viability ([3]; first compound 0.08 µM)	relative viability ([3]; first compound 0.253 µM)	relative viability ([3]; first compound 0.8 µM)	relative viability ([3]; first compound 2.53 µM)	relative viability ([3]; first compound 8 µM)	relative viability ([4]; first compound 0.08 µM)	relative viability ([4]; first compound 0.253 µM)	relative viability ([4]; first compound 0.8 µM)	relative viability ([4]; first compound 2.53 µM)	relative viability ([4]; first compound 8 µM)
201T	1.07	0.93	1.02	1.01	0.595	1.05	1.01	1	1.08	1.13	1.19	1.16	1.21	1.22	1.23	0.304	0.335	0.335	0.342	0.24
A-427	0.878	0.824	0.86	0.91	0.748	1.06	1.05	1.13	1.17	0.959	1.08	0.877	0.915	0.973	0.948	1.06	1.07	0.929	1.07	0.952
ABC-1	1.14		0.938	0.949	0.784	0.655	0.894	0.723	1.02	0.504										
BEN	0.548	0.589	0.523	0.682	0.495	0.781	0.967	1.07	0.847	0.79	0.0374	0.0689	0.0632	0.23	0.108	0.928	0.753	0.715	0.942	0.753
CAL-12T	0.566	0.728	0.727	0.957	0.513	0.451	0.894	0.833	0.676	0.634	1.21	1.34	1.26	1.33	1.2	1.31	1.21	1.32	1.57	0.765
COR-L23	0.438	0.365	0.46	0.421	0.405	0.84	0.915	1.04	1.13	0.505	0.895	1.06	1.04	1.47	0.525	0.198	0.21	0.199	0.203	0.203
COR-L 105	0.58	0.738	0.882	1.29	0.607	0.892	0.832	1.05	0.96	0.597	0.765	0.708	0.724	0.808	0.634	1.03	1.26	1.27	1.4	0.89
Calu-6						0.927	1.14	0.975	0.875	0.464	0.873	0.944	0.935	0.969	0.441					
ChaGo-K-1	0.616	0.76	0.809	0.757	0.597						1.19	0.888	0.663	1.69	1.11	0.277	0.27	0.259	0.267	0.236
EBC-1						0.787	0.804	1.1	0.763	0.62	0.396	0.344	0.401	0.316	0.369					
EKVX	0.577	0.723	0.651	0.63	0.561	0.999	1.05	1.09	0.951	0.839	0.718	0.775	0.961	0.848	0.741	0.366	0.382	0.436	0.432	0.35
EMC-BAC-2	0.416		0.343	0.398	0.377	0.8	0.804	0.882	0.825	0.627	0.906	0.95	1.28	1.16	0.707	0.379	0.482	0.49	0.461	0.386
EPLC-272H	0.41		0.444	0.505	0.474		1.17	1.2	1.09	0.984		1.18	1.27	1.14	0.827	0.335		0.333	0.288	0.416
H3255	0.821	0.922	0.841	0.836	0.666	1	0.888	1.02	1.03	0.726	0.416	0.393	0.557	0.542	0.419	0.554	0.532	0.552	0.565	0.552
HARA	0.477	0.545	0.513	0.665	0.372	0.956	1.09	1.08	0.917	0.54	1.18	1.33	1.16	1.23	0.537	0.253	0.252	0.253	0.252	0.228
HCC-15	0.927	0.96	0.869	0.788	0.606	0.931	0.931	0.942	1.04	0.744	0.697	0.601	0.762	0.791	0.528	0.216	0.207	0.225	0.231	0.227
HCC-44	1.19	1.19	1.09	1.24	0.93	0.689	0.818	0.662	0.686	0.579	0.989	1.28	1.01	1.13	0.477	0.729	0.664	0.612	0.644	0.554
HCC-78	0.385	0.458	0.546	0.424	0.476	0.547	0.499	0.518	0.54	0.443	0.834	0.786	0.924	0.838	0.608	0.798	0.867	0.935	0.923	0.66
HCC-366	0.344	0.405	0.332	0.403	0.256		0.645	0.594	0.946	0.265		1.09	1.04	1.13	0.343	0.199	0.169	0.206	0.156	0.139
HCC-827	0.831	0.655	0.797	0.953	0.688	0.961	0.969	0.927	0.996	0.926	1.06	1.1	1.01	1.07	0.946	0.253	0.237	0.251	0.268	0.235

Cell Line	relative viability ([1]; first compound 0.08 µM)	relative viability ([1]; first compound 0.253 µM)	relative viability ([1]; first compound 0.8 µM)	relative viability ([1]; first compound 2.53 µM)	relative viability ([1]; first compound 8 µM)	relative viability ([2]; first compound 0.08 µM)	relative viability ([2]; first compound 0.253 µM)	relative viability ([2]; first compound 0.8 µM)	relative viability ([2]; first compound 2.53 µM)	relative viability ([2]; first compound 8 µM)	relative viability ([3]; first compound 0.08 µM)	relative viability ([3]; first compound 0.253 µM)	relative viability ([3]; first compound 0.8 µM)	relative viability ([3]; first compound 2.53 µM)	relative viability ([3]; first compound 8 µM)	relative viability ([4]; first compound 0.08 µM)	relative viability ([4]; first compound 0.253 µM)	relative viability ([4]; first compound 0.8 µM)	relative viability ([4]; first compound 2.53 µM)	relative viability ([4]; first compound 8 µM)
HOP-62	0.522	0.628	0.552	0.468	0.323	1.24	0.948	1	1.06	0.49	0.516	0.989	1.23	0.796	0.466	0.335	0.315	0.306	0.336	0.12
IA-LM	0.524	0.895	1.01	0.756	0.417	0.538	0.518	0.822	0.427	0.411	0.841	0.7	0.823	0.884	0.523					
LC-2-ad	0.661	0.517	0.771	0.748	0.53	0.828	0.927	0.885	0.893	0.663	0.384	0.393	0.489	0.5	0.335	0.247	0.268	0.277	0.271	0.281
LCLC-97TM1	0.521	0.831	0.754	0.734	0.415	0.185	0.161	0.19	0.197	0.164	0.263	0.306	0.347	0.537	0.249	0.196	0.19	0.173	0.198	0.196
LCLC-103H	0.891	0.784	0.76	0.75	0.709	1.03	1.04	0.973	0.924	0.858						0.542	0.464	0.437	0.437	0.49
NCI-H358	0.687	0.753	0.808	0.885	0.441	0.819	0.74	0.779	0.874	0.561						0.204	0.196	0.16	0.179	0.162
NCI-H522	0.69	0.86	1.03	1.08	0.736											0.958	0.997	0.964	0.914	0.764
NCI-H650	0.731	0.395	0.482	0.486	0.369		0.81	0.779	0.878	0.608						1.02	0.957	0.923	1.05	0.871
NCI-H661	0.765	0.761	0.817	0.838	0.406	0.581	0.607	0.675	0.483	0.553						0.961	0.98	0.924	0.995	0.493
NCI-H727	1.08	1.3	1.16	1.13	1.07	0.194	0.227	0.298	0.437	0.295	0.346	0.481	0.444	0.48	0.383					
NCI-H1299						0.901	0.98	1.09	0.932	0.607	1.14	1.03	1.03	1.06	0.654					
NCI-H1563						1.12	1.26	1.2	1.1	1.14						0.971	0.766	0.744	0.833	0.653
NCI-H1648	0.26	0.36	0.603	0.4	0.338											0.714	0.657	0.749	0.712	0.423
NCI-H1650	0.426	0.525	0.559	0.593	0.327						0.992	1.2	1.16	1.44	0.865	0.335	0.348	0.352	0.461	0.337
NCI-H1703						1.14	0.819	0.585	0.888	0.482	1.19	1.13	1.1	1.3	0.627					
NCI-H1792						0.446	0.353	0.606	0.379	0.575	0.454	0.518	0.602	0.481	0.47	0.523	0.543	0.606	0.626	0.293
NCI-H2170	0.638	0.791	0.739	0.715	0.463						0.515	0.605	0.649	0.492	0.58	0.278	0.269	0.28	0.271	0.248
NCI-H2342	0.63	0.882	0.778	0.795	0.6											0.657	0.821	0.76	0.818	0.634
SW 900	0.438	0.751	0.478	0.603	0.241											0.436	0.532	0.484	0.5	0.281
